Measured values taken from the NIST ThermoML archive (doi:10.1016/j.jct.2008.01.007).

Assay: xn = mol fraction of the nth substance listed
Details: 101 kPa, Liquid

OCCN1CCOCC1 [4-morpholineethanol] + O
Details	mass density, 293.15 K [kg/m3]	mass density, 303.15 K [kg/m3]	mass density, 313.15 K [kg/m3]	mass density, 323.15 K [kg/m3]	mass density, 333.15 K [kg/m3]	viscosity, 293.15 K [mPa·s]	viscosity, 303.15 K [mPa·s]	viscosity, 313.15 K [mPa·s]	viscosity, 323.15 K [mPa·s]	viscosity, 333.15 K [mPa·s]
x1 = 0.0628	1041.44	1033.11	1024.47	1017.66	1012.27	14.46	9.721	8.148	6.767	4.413
x1 = 0.1126	1061.42	1052.36	1043.65	1035.57	1029.49	22.98	18.02	13.55	11.37	9.233
x1 = 0.1985	1078.87	1069.04	1060.34	1052.34	1044.12	33.29	27.47	22.61	17.84	13.91
x1 = 0.2466	1083.81	1073.73	1065.05	1057.12	1048.47	–	–	–	–	–
x1 = 0.2887	1086.11	1075.86	1067.22	1059.03	1050.37	39.28	33.52	28.26	23.09	17.82
x1 = 0.3459	1087.54	1077.13	1068.55	1060.61	1051.89	41.75	35.73	30.86	25.45	19.93
x1 = 0.4127	1087.67	1077.14	1068.64	1061.07	1052.63	43.23	37.33	31.64	25.94	20.12
x1 = 0.4852	1086.69	1076.07	1067.65	1060.28	1052.39	44.02	37.36	31.41	25.4	19.72
x1 = 0.5438	1085.22	1074.56	1066.2	1058.66	1051.46	–	–	–	–	–
x1 = 0.5842	1084.37	1073.69	1065.37	1057.87	1050.71	43.33	36.22	29.62	23.17	18.58
x1 = 0.6438	1082.81	1072.11	1063.85	1056.41	1049.64	42.3	34.92	28.05	21.34	16.15
x1 = 0.6878	1081.6	1070.89	1062.67	1055.27	1048.84	–	–	–	–	–
x1 = 0.7439	1080.31	1069.59	1061.41	1054.22	1047.82	39.78	32.9	25.58	19.58	14.06
x1 = 0.8238	1078.68	1068.19	1060.06	1053.44	1047.09	36.28	30.25	23.38	18.01	12.67
x1 = 0.8846	1077.69	1067.27	1059.5	1052.95	1046.7	33.61	27.11	22.16	16.98	11.26
x1 = 0.9486	1077.17	1066.94	1059.41	1052.79	1046.54	–	–	–	–	–
x1 = 1	1076.58	1066.51	1059.19	1052.64	1046.43	26.58	21.99	17.32	12.86	8.284
